In the COVID Moonshot data (paper PMC7615835) one finds IC50 data, which are given here for 33 molecules.

By IC50 is commonly meant the midpoint of a concentration-inhibition curve. Low values mean greater potency, high ones weaker potency.

Several values for one entry are separate records, joined by “and”; a condition that tells them apart may be missing. Equal values may be shown once.

This assay addresses SARS-CoV-2 Main Protease (SARS-CoV-2) (UniProt P0DTD1).
`C=CC(=O)N(c1ccc(C(C)(C)C)cc1)C(C(=O)NC)c1cccnc1` (stereo not drawn) yielded an IC50 of 35700 nM. `CC(C)(C)c1ccc(N(C(=O)c2cnc[nH]2)C(C(=O)NCCc2cccc(F)c2)c2cccnc2)cc1` (stereo not drawn) registered an IC50 of 292 nM. Then `CCC(=O)Nc1ccc(N(Cc2ccccc2)C(=O)Nn2nnc3ccccc32)cc1`, with 3590 nM; and `COc1cc(COc2cc(Cl)cc(CC(=O)Nc3cnccc3C)c2)ccc1OC(F)F`, with greater than 99500 nM.

In the case of `O=C(Nc1cncc2cc(F)ccc12)[C@@H]1CCS(=O)(=O)c2ccc(Cl)cc21` (stereo in doubt), the IC50 was 294 nM.

`O=C(Cc1cc(Cl)cc(Nc2ccc(Br)nc2)c1)Nc1cncc2ccccc12` displayed an IC50 of 1940 nM. As for `COc1ccc2c(c1)c(N)nn2C(=O)Cc1cccc(Cl)c1`, the IC50 was greater than 99500 nM.

The molecule `CC(C)(C)c1ccc(N(C(=O)c2cnon2)C(C(=O)NCCc2cccc(F)c2)c2cccnc2)cc1` (stereo not drawn) yielded an IC50 of 8410 nM. Molecule `CCc1nc(-c2nnc[nH]2)sc1C(=O)N(c1ccc(C(C)(C)C)cc1)C(C(=O)NCCc1cccc(F)c1)c1cccnc1` (stereo not drawn) yielded an IC50 greater than 99500 nM.

In the case of `C[C@H](C(=O)Nc1cncnc1)c1ccccc1` (stereo in doubt), the IC50 was greater than 99500 nM. Then `Cc1ccc2ncc(NC(=O)Cc3cccc(Cl)c3)n2c1`, with 9010 nM. Then `N#CC1(CS(=O)(=O)N2Cc3ccc(Cl)cc3C3(CCN(c4cncc5ccc(Cl)cc45)C3=O)C2)CC1` (stereo not drawn), with 820 nM. Then `N#CC1(CS(=O)(=O)N2Cc3ccc(Cl)cc3C(C(=O)Nc3cncc4cccc(Cl)c34)C2)CC1` (stereo not drawn), with 259 nM.

Molecule `CC(C)(C)c1ccc(N(C(=O)c2cocn2)C(C(=O)NCCc2cccc(F)c2)c2ccc[nH]c2=O)cc1` (stereo not drawn) returned an IC50 greater than 99500 nM.

On to `O=C1NCC(C(=O)Nc2cncc3cc(F)ccc23)c2cc(Cl)ccc21` (stereo not drawn), for which the IC50 is 1150 nM. Regarding `O=C(Cc1cccc(Cl)c1)NC1C(=O)Nc2ccccc21` (stereo not drawn), the IC50 was greater than 99500 nM.

Molecule `CN(c1cc(Cl)cc(CC(=O)Nc2cncc3ccccc23)c1)[C@@H]1CCN(Cc2ccccc2)C1` (stereo in doubt) gave an IC50 of 2040 nM.

As to `O=C(CCl)N1CCN(C(c2ccccc2)C2CCCCC2)CC1` (stereo not drawn), the IC50 was 5720 nM and 2980 nM. Take `COc1ccc(Cl)cc1OCCNC(=O)c1cc(=O)[nH]c2ccccc12`: the half-inhibitory concentration (IC50) was greater than 99500 nM. In turn, `Cc1ccc(Br)nc1C(=O)NC(C)c1nnc2c(=O)[nH]ccn12` (stereo not drawn) had an IC50 greater than 99500 nM. Molecule `Cc1cc(O)cc(C)c1C[C@H](NC(=O)[C@H](N)CCCNC(=N)N)C(=O)N[C@@H](CCCCN)C(=O)N[C@@H](Cc1ccccc1)C(N)=O` (stereo in doubt) gave an IC50 greater than 99000 nM.

`Cn1ncc2cc(N(C(=O)c3cocn3)C(C(=O)NCCc3cccc(F)c3)c3cccnc3)ccc21` (stereo not drawn) registered an IC50 of 48000 nM. Regarding `CS(=O)(=O)c1ccc2c(NC(=O)C3CN(CC(=O)NCC(F)(F)F)C(=O)c4ccc(Cl)cc43)cncc2c1` (stereo not drawn), the IC50 is 287 nM. The molecule `O=C(Nc1cncc2ccccc12)C1CN(CC2CC2)C(=O)c2ccc(Cl)cc21` (stereo not drawn) had an IC50 of 381 nM.

With `COc1ccc(-c2ccccc2S(=O)(=O)N2CCN(C(=O)CCl)CC2)cc1`, the IC50 was 551 nM. The molecule `O=C(NCCc1cccc(F)c1)C(c1cccnc1)N(C(=O)c1cocn1)C1COc2ccccc2C1` (stereo not drawn) came in with an IC50 greater than 99500 nM. Then `Cc1ccncc1C(C(=O)NCCc1cccc(F)c1)N(C(=O)c1ccco1)c1ccc(C(C)(C)C)cc1` (stereo not drawn), with 112 nM; and `Cc1cc(C)c(C#N)c(Sc2ncnc3c2nnn3Cc2ccccc2)n1`, with 649 nM; and `CCOC(=O)c1c(C)n(S(C)(=O)=O)c2ccc(N(C(=O)c3ccco3)S(C)(=O)=O)cc12`, with 282 nM. Regarding `O=S(=O)(c1cc2c(cc1OCc1ccccc1)OCO2)N1CCOCC1`, the IC50 was greater than 99500 nM.

Regarding `Cc1cccc(CN2CCN(c3nc4ccccc4nc3C)CC2)c1`, the IC50 is greater than 99500 nM. Take `Cc1noc(C)c1CCNC(=O)Nc1cn(CC(C)C)c(=O)c2ccccc12`: the IC50 came out at 27700 nM. Consider `CN(C)C(=O)C(CNC(=O)[C@@H](c1ccccc1)N1Cc2ccccc2C1=O)c1ccccc1` (stereo in doubt), for which the IC50 was greater than 99500 nM.
